According to the supplement of paper PMC11451515:

Test system: SEM cells
Assay: cell viability relative to DMSO control; higher = less cytotoxic
Conditions: 48 h
Outline: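 Three leukemia lines were tested: NOMO1 and SEM at 500 cells/well and P12-Ichikawa at 1000 cells/well. Each was adapted for at least four passages in each medium and seeded in 5 μl in 1536-well plates, and library compounds in DMSO were pin-dosed from 47 μM to 0.79 nM in 11 threefold steps. After 48 h at 37°C, CellTiter-Glo One luminescence was read. Viability is a percentage relative to DMSO wells on each plate, with cell-free wells as background.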

[1] = HPLM + 10% dialyzed FBS, 0.000781 µM
[2] = HPLM + 10% dialyzed FBS, 0.00234 µM
[3] = HPLM + 10% dialyzed FBS, 0.00702 µM
[4] = HPLM + 10% dialyzed FBS, 0.0211 µM
[5] = HPLM + 10% dialyzed FBS, 0.0632 µM
[6] = HPLM + 10% dialyzed FBS, 0.19 µM
[7] = HPLM + 10% dialyzed FBS, 0.569 µM
[8] = HPLM + 10% dialyzed FBS, 1.71 µM
[9] = HPLM + 10% dialyzed FBS, 5.12 µM
[10] = HPLM + 10% dialyzed FBS, 15.4 µM
[11] = HPLM + 10% dialyzed FBS, 46.1 µM
[12] = RPMI 5 mM glucose + 10% FBS, 0.000781 µM
[13] = RPMI 5 mM glucose + 10% FBS, 0.00234 µM
[14] = RPMI 5 mM glucose + 10% FBS, 0.00702 µM
[15] = RPMI 5 mM glucose + 10% FBS, 0.0211 µM
[16] = RPMI 5 mM glucose + 10% FBS, 0.0632 µM
[17] = RPMI 5 mM glucose + 10% FBS, 0.19 µM
[18] = RPMI 5 mM glucose + 10% FBS, 0.569 µM
[19] = RPMI 5 mM glucose + 10% FBS, 1.71 µM
[20] = RPMI 5 mM glucose + 10% FBS, 5.12 µM
[21] = RPMI 5 mM glucose + 10% FBS, 15.4 µM
[22] = RPMI 5 mM glucose + 10% FBS, 46.1 µM
[23] = RPMI 5 mM glucose + 10% dialyzed FBS, 0.000781 µM
[24] = RPMI 5 mM glucose + 10% dialyzed FBS, 0.00234 µM
[25] = RPMI 5 mM glucose + 10% dialyzed FBS, 0.00702 µM
[26] = RPMI 5 mM glucose + 10% dialyzed FBS, 0.0211 µM
[27] = RPMI 5 mM glucose + 10% dialyzed FBS, 0.0632 µM
[28] = RPMI 5 mM glucose + 10% dialyzed FBS, 0.19 µM
[29] = RPMI 5 mM glucose + 10% dialyzed FBS, 0.569 µM
[30] = RPMI 5 mM glucose + 10% dialyzed FBS, 1.71 µM
[31] = RPMI 5 mM glucose + 10% dialyzed FBS, 5.12 µM
[32] = RPMI 5 mM glucose + 10% dialyzed FBS, 15.4 µM
[33] = RPMI 5 mM glucose + 10% dialyzed FBS, 46.1 µM

SMILES | cell viability [1] [%] | cell viability [2] [%] | cell viability [3] [%] | cell viability [4] [%] | cell viability [5] [%] | cell viability [6] [%] | cell viability [7] [%] | cell viability [8] [%] | cell viability [9] [%] | cell viability [10] [%] | cell viability [11] [%] | cell viability [12] [%] | cell viability [13] [%] | cell viability [14] [%] | cell viability [15] [%] | cell viability [16] [%] | cell viability [17] [%] | cell viability [18] [%] | cell viability [19] [%] | cell viability [20] [%] | cell viability [21] [%] | cell viability [22] [%] | cell viability [23] [%] | cell viability [24] [%] | cell viability [25] [%] | cell viability [26] [%] | cell viability [27] [%] | cell viability [28] [%] | cell viability [29] [%] | cell viability [30] [%] | cell viability [31] [%] | cell viability [32] [%] | cell viability [33] [%]
CN1C2=CC(=O)/C(=N/NC(N)=O)C=C2CC1S(=O)(=O)[O-].[Na+] (stereo not drawn) | 79.9 | 110 | 96.7 | 103 | 103 | 110 | 117 | 105 | 124 | 103 | 115 | 109 | 108 | 114 | 115 | 103 | 115 | 112 | 121 | 128 | 125 | 112 | 95.5 | 109 | 98.5 | 110 | 94.6 | 116 | 126 | 114 | 118 | 117 | 109
CN(CCOc1ccc(NS(C)(=O)=O)cc1)CCc1ccc(NS(C)(=O)=O)cc1 | 102 | 108 | 105 | 107 | 104 | 120 | 111 | 117 | 128 | 93.9 | 131 | 89.9 | 111 | 101 | 110 | 122 | 101 | 119 | 107 | 109 | 79.7 | 94.6 | 85.2 | 95.2 | 102 | 100 | 94 | 100 | 96.9 | 104 | 96.1 | 56.1 | 91.6
COc1cccc2c(NCc3ccccc3)nc(-n3c(N)nc4ccccc43)nc12 | 81.2 | 88.4 | 104 | 93.6 | 89.1 | 90.6 | 83.2 | 92.2 | 64.1 | 29.6 | 8.4 | 95.2 | 92.8 | 98.7 | 97.5 | 94.8 | 87.6 | 95 | 72.1 | 54.9 | 24.3 | 7.18 | 81.8 | 73.7 | 91.9 | 99.8 | 111 | 106 | 85.9 | 76.5 | 65.1 | 45.2 | 9.78
FC(F)(F)C1=CC=C2C(SCCCCCO\C3=C\O\C(CN4CCOCC4)=C/C3=O)=CC=NC2=C1 | 92.4 | 106 | 107 | 106 | 108 | 115 | 111 | 119 | 112 | 106 | 96.2 | 66.6 | 74.4 | 69 | 67.2 | 63.7 | 72.9 | 77.8 | 65.4 | 66.1 | 69.4 | 61.9 | 112 | 113 | 104 | 110 | 102 | 112 | 115 | 110 | 99 | 102 | 85.7
CN1/C=C(\N=C(NC2=CC=C(C=C2)C(=O)N3CCOCC3)/C1=O)/C4=C(C)C(=CC=C4)NC(=O)C5=CC=C(C=C5)C(C)(C)C | 111 | 97.2 | 105 | 48.6 | 106 | 116 | 97.5 | 110 | 106 | 89.5 | 92.2 | 110 | 102 | 106 | 46.8 | 101 | 86.6 | 110 | 92.8 | 104 | 83.3 | 66 | 106 | 108 | 105 | 50.7 | 120 | 107 | 100 | 111 | 92.2 | 98.5 | 68.6
CCc1c(O)cc(O)c(C(=O)c2ccc(OCCN3CCOCC3)c(OC)c2)c1CC(=O)N(CCOC)CCOC | 115 | 124 | 118 | 120 | 116 | 116 | 111 | 103 | 47.3 | 25.5 | 17 | 122 | 116 | 153 | 121 | 143 | 117 | 81.9 | 91.3 | 40.8 | 20.8 | 19 | 115 | 103 | 111 | 106 | 108 | 105 | 86.5 | 68.1 | 32.9 | 24.1 | 15
CC(Cc1ccc(O)c(O)c1)(NN)C(=O)O (stereo not drawn) | 103 | 121 | 130 | 125 | 122 | 131 | 105 | 112 | 108 | 119 | 79.9 | 117 | 130 | 122 | 127 | 126 | 119 | 99 | 121 | 110 | 113 | 76.1 |  |  |  |  |  |  |  |  |  |  | 
OCCNC1CCCc2c1[nH]c1ccc(-c3ccccc3)cc21 (stereo not drawn) | 81.1 | 86.7 | 91.5 | 84.7 | 106 | 101 | 90.2 | 100 | 85.4 | 67.3 | 19.5 | 99.6 | 87.8 | 101 | 109 | 108 | 105 | 88.7 | 91.6 | 74 | 56.1 | 5.82 | 85.6 | 87.9 | 89.7 | 96.1 | 88.7 | 104 | 99 | 94.2 | 94.7 | 68.2 | 22.9
